Measurements reported in patent US20240277742A1, “TRANSLATION INHIBITOR WITHOUT OCCUPYING RIBOSOME RESOURCES AS ANTI-TUMOR DRUG” (CHI BIOTECH CO., LTD., priority 2022, published 2024).

Experiments:
ribosomes = assay: Sucrose density ultracentrifugation (polysome profiling) of drug-treated cell lysates; format: cell-based; conditions: methyl aurintricarboxylate 50 μg/mL; Harringtonin 10 μg/mL; Kasugamycin 10 μg/mL; Pateamine A 2 μM; Hippuristanol 1 μM
Protocol: Example 2 Proof that methyl aurintricarboxylate, Kasugamycin and Hippuristanol are all translation inhibitors without occupying ribosome resources Using methods well known to those skilled in the art, sucrose density ultracentrifugation (polysome profiling) was carried out to measure polysomes. Ultracentrifugation was performed on normal cell lysates and drug-treated cell lysates at 15-50% sucrose density gradient, the solution was pumped out slowly, and OD260 nm (260 nm Optical Density) was measured. In FIG. 2A, the black line, gray solid line and gray dashed line are the experimental curves of normal cells, cells treated with methyl aurintricarboxylate (concentration 50 μg/mL) and cells treated with Harringtonin (concentration 10 μg/mL) respectively. In FIG. 2B, the gray solid line, gray dashed line, and black dotted line are the experimental curves of cells treated with Kasugamycin (concentration 10 μg/mL), Pateamine A (concentration 2 μM), and Hippuristanol (concentration 1 μM), respectively. The peak heights of the curves are related to concentration.

A549 lung cancer cells = assay: Nude-mouse lung cancer xenograft model, tumor diameter; format: in vivo, nude mice; conditions: gavage, daily dose 10 mg/kg, days 1, 3, 5
Protocol: Using techniques well known in the art, the tumor inhibition assay of Hippuristanol was carried out on a nude-mouse xenograft model. Nude mice were subcutaneously injected with A549 lung cancer cells. After the tumors formed, Hippuristanol was administered by gavage once at a daily dose of 10 mg/kg. On days 1, 3, and 5, the tumor diameters of the nude mice were measured in vivo.

[1] = tested on: human breast cancer cell line MDA-MB-468; assay: Transwell invasion assay; format: cell-based; conditions: MDA-MB-468, 50 nM, 24 h
Protocol: (§1) The human breast cancer cell line MDA-MB-468 was incubated and 50 nM Hippuristanol was then added. The well-known Transwell migration and invasion assays were carried out. 100,000 cells were added to the Transwell chamber, migration/invasion was carried out for 24 h, and crystal violet staining was performed.

[2] = tested on: human breast cancer cell line MDA-MB-468; assay: Transwell migration assay; format: cell-based; conditions: MDA-MB-468, 50 nM, 24 h
Protocol: as §1

H1299 lung cancer cells = assay: Nude-mouse lung cancer xenograft model, tumor diameter; format: in vivo, nude mice; conditions: gavage once, 10 μg/kg, days 1, 3, 5
Protocol: Using techniques well known in the art, the tumor inhibition assay of Kasugamycin was carried out on a nude-mouse xenograft model. Nude mice were subcutaneously injected with H1299 lung cancer cells. After the tumors formed, kasugamycin was administered (by gavage) once at a dose of 10 μg/kg. On days 1, 3, and 5, the tumor diameters of the nude mice were measured in vivo.

[3] = tested on: human breast cancer cell line MDA-MB-468; assay: Cell proliferation by sulforhodamine B assay; format: cell-based; conditions: MDA-MB-468, 1 mg/L
Protocol: The human breast cancer cell line MDA-MB-468 was cultured, 1 mg/L Kasugamycin was then added, and cell proliferation was measured by the sulforhodamine B assay well known in the art (see Qin et al., BAPI promotes breast cancer cell proliferation and metastasis by deubiquitinating KLF5, Nature Communications 6:8471).

[4] = tested on: cancer cells (A549 and H1299); assay: Cell apoptosis, onset concentration comparison under the same conditions; format: cell-based; conditions: same experimental conditions as methyl aurintricarboxylate
Protocol: (§2) Cell migration, cell invasion, cell apoptosis, cell colony formation and cytotoxicity experiments were carried out using methods well known to those skilled in the art. […] (3) Cell apoptosis: Cells were fluorescently labeled using Annexin V, and the occurrence of cell apoptosis was tested under a fluorescence microscopy or on a flow cytometer. […] As the concentration of methyl aurintricarboxylate increases (final concentration: 10 μg/mL, 20 μg/mL, 40 μg/mL), the percentage of apoptosis of cancer cells increases. The percentage of apoptosis of cancer cells is positively correlated with the concentration of methyl aurintricarboxylate. Under the same experimental conditions, the onset concentration of aurintricarboxylic acid (0.25-0.5 mg/mL) is 12.5 to 25 times that of methyl aurintricarboxylate.

lung cancer A549 cells = conditions: cisplatin concentration adopted (50 μM), from reported procedure; cited from earlier work
H1299 cells [5] = assay: Cell apoptosis, Annexin V labelling; format: cell-based; conditions: H1299, 10, 20, 40 μg/mL, increases with concentration
Protocol: as §2

A549 cells [6] = assay: Cell apoptosis, Annexin V labelling; format: cell-based; conditions: A549, 10, 20, 40 μg/mL, increases with concentration
Protocol: as §2

H1299 cells [7] = assay: Agar colony formation assay; format: cell-based; conditions: H1299, 20 μg/mL
Protocol: (§3) Cell migration, cell invasion, cell apoptosis, cell colony formation and cytotoxicity experiments were carried out using methods well known to those skilled in the art. […] (4) Cell colony formation: Agar colony formation assay was carried out on A549 and H1299 cells that were untreated and treated with methyl aurintricarboxylate (final concentration 20 μg/mL).

A549 cells [8] = assay: Agar colony formation assay; format: cell-based; conditions: A549, 20 μg/mL
Protocol: as §3

H1299 cells [9] = assay: Transwell invasion assay; format: cell-based; conditions: H1299, 20 μg/mL, vs blank control
Protocol: (§4) Cell migration, cell invasion, cell apoptosis, cell colony formation and cytotoxicity experiments were carried out using methods well known to those skilled in the art. […] (2) Cell invasion: Transwell invasion assay was carried out on HBE, A549 and H1299 cells treated with or without methyl aurintricarboxylate (final concentration 20 μg/mL).

A549 cells [10] = assay: Transwell invasion assay; format: cell-based; conditions: A549, 20 μg/mL, vs blank control
Protocol: as §4

HBE cells [11] = assay: Transwell migration assay; format: cell-based, human; conditions: 20 μg/mL, vs blank control
Protocol: (§5) Cell migration, cell invasion, cell apoptosis, cell colony formation and cytotoxicity experiments were carried out using methods well known to those skilled in the art. […] (1) Cell migration: The Transwell migration assay was carried out to test the migration ability of HBE, A549 and H1299 cells passing pores before and after treatment. The final concentration of methyl aurintricarboxylate was 20 μg/mL.

[12] = tested on: human normal fibroblasts (primary culture); assay: Apoptosis by Annexin V flow cytometry assay; format: cell-based; conditions: 20 μg/mL to 50 μg/mL, 48 h
Protocol: (§6) Apoptosis assay was carried out using human normal fibroblasts (primary culture) as normal controls and ES-2 human ovarian cancer cell line as cancer cells. […] (c) Apoptosis was tested by Annexin V flow cytometry assay. In the figure, cells in the area Q1 are non-apoptotic cells, cells in the area Q3 are early apoptotic (the key area for observing apoptosis), and cells in the area Q2 are late apoptotic, including some necrotic cells.

[13] = tested on: ES-2 human ovarian cancer cell line; assay: Apoptosis by Annexin V flow cytometry assay; format: cell-based
Protocol: as §6

H1299 cells [14] = assay: Transwell migration assay; format: cell-based; conditions: H1299, 20 μg/mL, vs blank control
Protocol: as §5

A549 cells [15] = assay: Transwell migration assay; format: cell-based; conditions: A549, 20 μg/mL, vs blank control
Protocol: as §5

[16] = tested on: HCCLM3 liver cancer cells; assay: Cell proliferation by CCK-8; format: cell-based; conditions: HCCLM3, 50 μg/mL or above, dose-effect relationship
Protocol: (§7) The Chinese liver cancer cell lines HCCLM3 and MHCC97H were taken, and cell proliferation was tested with the addition of methyl aurintricarboxylate. […] (b) A methyl aurintricarboxylate solution was added to the culture medium and the final concentrations of methyl aurintricarboxylate reached 10 μg/mL, 20 μg/mL, 50 μg/mL, 80 μg/mL and 120 μg/mL, respectively. The cells were further incubated for […] before sampling. (c) Cell proliferation was tested by CCK-8 (Cell Counting Kit-8).

[17] = tested on: MHCC97H liver cancer cells; assay: Cell proliferation by CCK-8; format: cell-based; conditions: 50 μg/mL or above, dose-effect relationship
Protocol: as §7

HBE cells [18] = assay: Cell apoptosis, Annexin V labelling; format: cell-based, human; conditions: HBE, 10, 20, 40 μg/mL
Protocol: as §2

COC(=O)C[C@](O)(CCC(C)(C)O)C(=O)O[C@@H]1C(OC)=C[C@]23CCCN2CCc2cc4c(cc2[C@H]13)OCO4 [Harringtonin]
polysome profile (OD260 nm peaks of 40S, 60S, 1× and polysomes) (ribosomes): peak of 1× ribosomes is very high

C[C@H]1C[C@@]2(O[C@H]3C[C@H]4[C@@H]5CC[C@H]6C[C@H](O)CC[C@]6(C)[C@H]5[C@@H](O)C[C@]4(C)[C@H]3[C@@]2(C)O)OC1(C)C [Hippuristanol]
change in tumor diameter (A549 lung cancer cells): tumor shrink significantly
polysome profile (OD260 nm peaks of 40S, 60S, 1× and polysomes) (ribosomes): peaks of 40S and 60S dominate
cell invasion [1]: effectively reduce
cell migration [2]: effectively reduce

C[C@H]1O[C@H](O[C@H]2[C@H](O)[C@@H](O)[C@@H](O)[C@H](O)[C@@H]2O)[C@@H](N)C[C@@H]1NC(=N)C(=O)O [Kasugamycin]
polysome profile (OD260 nm peaks of 40S, 60S, 1× and polysomes) (ribosomes): peaks of 40S and 60S dominate
change in tumor diameter (H1299 lung cancer cells): tumor shrink significantly
cell proliferation [3]: slows down significantly from day 4

CC(/C=C/C(C)=C/[C@@H]1Cc2nc(cs2)[C@@H](C)C[C@@H](N)CC(=O)O[C@@H](C)C/C(C)=C/C=C\C(=O)O1)=C\CN(C)C [Pateamine A]
polysome profile (OD260 nm peaks of 40S, 60S, 1× and polysomes) (ribosomes): peaks of 40S and 60S dominate

O=C(O)C1=CC(=C(c2ccc(O)c(C(=O)O)c2)c2ccc(O)c(C(=O)O)c2)C=CC1=O [aurintricarboxylic acid]
onset concentration (apoptosis) [4]: 0.25 to 0.5 mg/mL

N.N.[Cl][Pt][Cl] [cisplatin]
inhibition of lung cancer A549 cells (lung cancer A549 cells): 80-90%

COC(=O)c1cc(/C(=C2/C=CC(=O)C(C(=O)O)=C2)c2ccc(O)c(C(=O)O)c2)ccc1O [methyl aurintricarboxylate, Methyl aurintricarboxylate]
cell apoptosis (H1299 cells [5]): will induce apoptosis
cell apoptosis (A549 cells [6]): will induce apoptosis
number of colonies/1000 cells (H1299 cells [7]): significantly reduced
number of colonies/1000 cells (A549 cells [8]): significantly reduced
cell invasion (H1299 cells [9]): significantly inhibits the invasion ability
cell invasion (A549 cells [10]): significantly inhibits the invasion ability
cell migration (HBE cells [11]): little effect
effect on normal cell apoptosis [12]: basically no effect
Percentage of late apoptotic and necrotic cells ([13]; 10 μg/mL, 48 h): 29.1%
late apoptotic+necrotic cells ([13]; 20 μg/mL or above, no obvious dose-effect relationship): do not increase significantly
Percentage of late apoptotic and necrotic cells ([13]; 20 μg/mL, 48 h): 17.2%
Percentage of late apoptotic and necrotic cells ([13]; 50 μg/mL, 48 h): 23.0%
Percentage of late apoptotic and necrotic cells ([13]; 120 μg/mL, 48 h): 22.6%
apoptosis ([13]; ES-2, 5 μg/mL, 48 h): significant effect on promoting apoptosis
early apoptosis ([13]; ES-2, 20 μg/mL, 48 h): 67.6%
apoptosis ([13]; ES-2, concentrations higher than 20 μg/mL, 48 h): almost all cells are completely apoptotic
cell migration (H1299 cells [14]): significantly inhibits the metastasis ability
cell migration (A549 cells [15]): significantly inhibits the metastasis ability
inhibition of cell proliferation [16]: obvious inhibitory effect
inhibition of cell proliferation [17]: obvious inhibitory effect
cell apoptosis (HBE cells [18]): will not induce apoptosis
